Data taken from patent US20040219191A1, “Use of a dopamine agonist with a short half-life for treating illnesses which can be treated by dopaminergic means” (priority 2000, published 2004).

Assay: Water solubility
Conditions: lisuride or a salt thereof

Compound: CCN(CC)C(=O)N[C@H]1C=C2c3cccc4[nH]cc(c34)C[C@H]2N(C)C1 [lisuride, 3-(9,10-didehydro-6-methyl-8α-ergolinyl)-1,1-diethyl urea]
- water solubility: good water solubility
